Here are results for five compounds from US8119599B2, “Direct application of non-toxic crosslinking reagents to resist progressive spinal degeneration and deformity” (Orthopeutics, L.P., priority 2001, dated 2012).

Several values for one entry are separate records, joined by “and”; a condition that tells them apart may be missing. Equal entries are not always repeated.

Assay [1] has as its system calf spine segments (intervertebral disc annular tissue). The assay is described as follows: Four-point lateral bending test of spine segments after unilateral injection of crosslinking reagent. Particulars: for Change in Stiffness: Compression side / Change in Stiffness: Tensionon side: neutral zone bending stiffness versus pre-treatment control; for Change in Stiffness: Compression side: treated side in compression; for Change in Stiffness: Tensionon side / Loss of Hysteresis: treated side in tension; for Loss of Hysteresis: versus pre-treatment control of same specimen. The text has this:
Experiments utilized 5 calf spine segments, each segment comprised of 3 lumbar intervertebral joints (motion segments), four vertebrae and the intervening 3 discs. The pedicles were cut and the posterior processes removed. The segments were randomly divided into a 0.33% by weight genipin crosslinked group, a 0.5% genipin group, a 0.66% genipin group, and a 0.66% genipin plus 0.1% proanthocyanidin group. Each group consisted of one 3 motion segment specimen. Each pre-treated spine served as its own control. Repeated testing was performed on some untreated and treated specimens to determine repeatability of the measurements. Additional appropriate concentrations and combinations of known minimally cytotoxic crosslinking reagents will be chosen based on the documented cytotoxicity of a particular tissue. […] Similar testing will be conducted on fresh-non-frozen animal tissue with appropriate sterilization procedures and antibiotics to prevent tissue degradation. Sugar solutions will be injected unilaterally into fresh intervertebral discs to induce non-enzymatic glycation crosslinks over a period of sterile incubation.
Four-point lateral bending tests were conducted using an MTS 858 materials testing system with custom fixtures while load and displacement were recorded digitally. First the specimens were cleaned of muscle and other non-load supporting tissues, and then the terminal vertebrae were potted in polyurethane to half their height in square molds. The potted spine segments are then placed on the bottom 2 rollers such that the lateral sides of the spines were positioned in a vertical plane. The bending load was actuated by 2 upper rollers in contact with the central two vertebrae of the segment. Care was taken to ensure that the pre- and post-treatment positioning of the specimens on the rollers was similar. As an attribute of 4-point bending, the central region of the test specimen, including the central disc between the 2 upper rollers, has an […] bending moment. A ramp load to 100 N (0.5 mm/s) was applied in right and left lateral bending to each spine both prior to treatment and after crosslinking treatment.
The crosslinking reagents were delivered to each of the discs in each spine specimen by 2 to 3 injections into one lateral side of the spine. Each injection was comprised of 1 cc of reagent. A 26 gauge hypodermic needle was used. The treated segments were allowed to sit in a closed container wrapped in moist paper towels for 36 hours prior to final testing. After testing, the discs were cut transversely to visually document the region of the tissue contacted by the reagents.
Resistance to lateral bending and lateral bending stability were assessed by two measures, one elastic-plastic, the other viscoelastic. The first was the neutral zone (low-load) bending stiffness evidenced by the amount of deformation from 0.1 to 100 N of deforming force. The second was the hysteresis or bending energy lost or not stored by the tissues. Less hysteresis, or a lower percentage of hysteresis compared to strain energy or the amount of bending energy stored and returned, corresponds to greater capacity to bounce back from a bend rather than remain in the deformed position. It also reflects a more elastic, spring-like response as compared to a more viscous response.

In assay [2] the test system is posterior intervertebral disc (lumbar intervertebral joints). Description: Indentation stress relaxation of posterior annulus before and after compression/flexion fatigue cycling. Also on record: species or system calf. Particulars: for change in relaxation due to 6000 fatigue cycles versus controls (fatigue resistance): 72 hours soaking (G1 0.033%, G2 0.33% Genipin in PBS), 6000 cycles at 200 N, 0.25 Hz; for initial pre-fatigue relaxation less than the pre-fatigue relaxation of the controls: 72 hours soaking in PBS with Genipin (G1 0.033%, G2 0.33%), before fatigue cycling. The protocol: (§1) Thirty-three lumbar intervertebral joints were obtained from ten four-month-old calf spines. The intervertebral joints were arbitrarily divided into 3 groups: untreated controls-12 specimens, Genipin treatment 1 (G1)-6 specimens, and Genipin treatment 2 (G2)-13 specimens. The G1 treatment involved 72 hours of soaking the whole specimen in PBS with a 0.033% concentration of Genipin. Similarly the G2 treatment involved 72 hours of soaking whole specimens in PBS with 0.33% concentration of Genipin. 0.33% Genipin in PBS is produced by dilution of 50 ml of 10 times. PBS (Phosphate Buffered Saline) with distilled water by a factor of 10 to give 500 ml (500 gm) of PBS and mixing in 1.65 grams of genipin to produce the 0.33% (wt %, gm/gm) solution. […] Some controls were not subjected to soaking prior to fatigue testing. Others were soaked in a saline solution for 72 hours. Water mass loss experiments were conducted to establish the equivalency of outer annulus hydration between the genipin soaked and 0.9% saline soaked controls. The selection of treatments was randomized by spine and level. The vertebral ends of the specimens were then potted in polyurethane to facilitate mechanical testing. At the prescribed points in the loading regimen, indentation testing was used to find viscoelastic properties as follows. Stress relaxation data was gathered by ramp loading the 3 mm diameter hemi-spherical indenter to 10 N and subsequently holding that displacement for 60 s, while recording the resulting decrease in stress, referred to as the stress relaxation. Indentation testing was also utilized to determine elastic-plastic properties by calculating a hardness index (resistance to indentation) from ramp loading data. Prior to recording hardness measurements, the tissue is repeatedly indented 10 times (60 s/cycle, to the displacement at an initial 10 N load). This test protocol is based on two principles. First, viscoelastic effects asymptotically decrease with repeated loading. Secondly, hardness measurements are sensitive to the loading history of the tissue. However this effect becomes negligible following 10 loading cycles. In order to minimize these effects, viscoelastic data (stress relaxation) was collected from tissue that had not previously been indented. Alternately, elastic-plastic data (hardness) was collected from tissue that had been repeatedly loaded (preconditioned). In this case, repetitive indentation was intended to reduce the undesired effects of the changing viscoelastic properties, namely lack of repeatability, on hardness measurements. These testing procedures were derived from several preliminary experiments on the repeatability of the measurements with variations of loading history and location. Following initial indentation testing, the specimen was loaded repetitively in flexion-compression at 200 N for 3000 cycles at a rate of 0.25 Hz. The load was applied perpendicularly to the transverse plane, 40 mm anterior to the mid-point of the specimen in the transverse plane. A second set of indentation testing data is then collected following fatigue cycling. This procedure was followed for two fatigue loading cycles. During all testing, the specimens were wrapped in saline wetted gauze to maintain their moisture content. […] Several statistical measures were calculated to evaluate the significance of the results. […]

Assay [3] has the same test system. Description: Indentation hardness of posterior annulus before and after compression/flexion fatigue cycling. Also on record: species or system calf. The method, then: as §1, with “measurements.” for “measurements. These testing procedures were derived from several preliminary experiments on the repeatability of the measurements with variations of loading history and location. Following initial indentation testing, the specimen was loaded repetitively in flexion-compression at 200 N for 3000 cycles at a rate of 0.25 Hz. The load was applied perpendicularly to the transverse plane, 40 mm anterior to the mid-point of the specimen in the transverse plane. A second set of indentation testing data is then collected following fatigue cycling. This procedure was followed for two fatigue loading cycles. During all testing, the specimens were wrapped in saline wetted gauze to maintain their moisture content.”

Turning to `COC(=O)C1=CO[C@@H](O)[C@@H]2C(CO)=CC[C@H]12` [0.33G, genipin], in assay [1], the “Change in Stiffness: Compression side” value was determined as 29%, the “Change in Stiffness: Tensionon side” value turned out to be 17% and the “Loss of Hysteresis” value is 35%.

In the case of `COC(=O)C1=CO[C@@H](O)[C@@H]2C(CO)=CC[C@H]12` [0.50G, genipin], in assay [1], the “Change in Stiffness: Compression side” value is −12% and −22%; the “Change in Stiffness: Tensionon side” value is 8% and 0.43%.

Take `COC(=O)C1=CO[C@@H](O)[C@@H]2C(CO)=CC[C@H]12` [0.66G, genipin]: in assay [1], the “Change in Stiffness: Compression side” value is given as 8%, the “Change in Stiffness: Tensionon side” value came to 6% and the “Loss of Hysteresis” value was found to be 20%.

For `COC(=O)C1=CO[C@@H](O)[C@@H]2C(CO)=CC[C@H]12` [G1, Genipin], in assay [2], the “change in relaxation due to 6000 fatigue cycles versus controls (fatigue resistance)” value is “did not bring about the same improvement in fatigue resistance” and the “initial pre-fatigue relaxation less than the pre-fatigue relaxation of the controls” value was found to be 26%.

As for `COC(=O)C1=CO[C@@H](O)[C@@H]2C(CO)=CC[C@H]12` [G2, Genipin], in assay [2], the “change in relaxation due to 6000 fatigue cycles versus controls (fatigue resistance)” value is reported as “less than a third of the change in the controls” and the “initial pre-fatigue relaxation less than the pre-fatigue relaxation of the controls” value worked out at 19%. The “persistence of hardness improvement under fatigue cycling” value in assay [3] (0.33% Genipin soak, up to 3000 fatigue cycles) is on record as “appears to have eroded prior to 3000 fatigue cycles”. Also, the “change in hardness between 3000 and 6000 cycles” value in assay [3] (G2: 0.33% Genipin, Brinnell's hardness index) was −0.94. For the same compound, the “initial pre-fatigue hardness greater than that of the control group” value in assay [3] (G2: 72 hours soaking in PBS with 0.33% Genipin, before fatigue cycling) is recorded as 17%.
